From patent publication US20190195880A1, “METHODS AND KITS FOR PREDICTING THE SENSITIVITY OF A SUBJECT SUFFERING OF RENAL CANCER TO CANCER TREATMENT” (CENTRE NATIONAL DE LA RECHERCHE SCIENTIFIQUE (CNRS), priority 2016, published 2019)
Like-named read-outs stand apart in the source and are kept apart here.

What was measured:
metastatic ccRCC [1] = experiment: TORAVA trial (retrospective validation cohort): survival versus plasmatic CXCL5/CXCL7; assay type: in vivo, human; conditions: patients with CXCL7 plasma levels below 250 ng/ml
Method: (§1) All patients gave written informed consent. The SUVEGIL trial (NCT00943839) was a multicenter prospective single-arm study. […] Patient characteristics and results have been previously described (Negrier et al., 2011).
(§2) The CXCL5 and CXCL7 cut-off points (respectively 0.1 and 250 ng/ml) for PFS and OS were determined using smoothing spline curves analysis (R software, version 3.2.2). […] The predictive cut-off points determined in the SUVEGIL cohort were used for the TORAVA cohort.

metastatic ccRCC [2] = experiment: Combination of SUVEGIL and TORAVA trials (sunitinib): survival versus plasmatic CXCL7; assay type: in vivo, human; conditions: both cohorts combined
Method: as §1, §2

metastatic ccRCC [3] = tested on: metastatic ccRCC
Method: Eligible patients were at least 18 years of age and had metastatic ccRCC histologically confirmed, with the presence of measurable disease according to Response Evaluation Criteria in Solid Tumors (RECIST) v1.1.
The primary end point of the study was to evaluate the correlation between plasmatic levels of CXCL5 and CXCL7 and the overall response rate (ORR). The response was evaluated by investigators' assessment.
The secondary end points were to evaluate the correlation between plasmatic levels of CXCL5 and/or CXCL7 and overall survival (OS) and progression-free survival (PFS), censored at last follow-up for those still alive or who have not progressed.
Blood samples were centrifuged and the plasmas were collected and conserved at −80° C. Plasmatic levels of CXCL5 and CXCL7 were determined by ELISA using R&D (reference DY254) and Peprotech kits (reference 900-K40) respectively. Pure plasma or a 1/5 dilution was used for CXCL5 detection and a 1/100 dilution was used to detect CXCL7.
Spearman's correlation was performed between best response rate and quantitative level of chemokine. The CXCL5 and CXCL7 cut-off points (respectively 0.1 and 250 ng/ml) for PFS and OS were determined using smoothing spline curves analysis (R software, version 3.2.2). Kaplan Meier method was used to produce survival curves and analyses of censored data were performed using Cox models. The predictive cut-off points determined in the SUVEGIL cohort were used for the TORAVA cohort.

[4] = CXCL7 plasma levels below 250 ng/ml

**Q.** Which PFS (metastatic ccRCC [1]) does the source give for `CCN(CC)CCNC(=O)c1c(C)[nH]c(/C=C2\C(=O)Nc3ccc(F)cc32)c1C` [sunitinib] here?
**A.** 8.6 months

**Q.** What about the OS (metastatic ccRCC [2]; CXCL7 plasma levels above 250 ng/ml, p=0.00025) of the same compound?
**A.** 34.4 months

**Q.** And the OS (metastatic ccRCC [2]; [4])?
**A.** 20.7 months

**Q.** And the “median PFS” value (metastatic ccRCC [2]; [4])?
**A.** 8.3 months

**Q.** And the “median PFS” value (metastatic ccRCC [3]; SUVEGIL prospective cohort, all patients)?
**A.** 20.1 months

**Q.** And the “median PFS” value (metastatic ccRCC [3]; patients with CXCL5 plasma levels below 0.1 ng/ml)?
**A.** 14.9 months

**Q.** And the “median OS” value (metastatic ccRCC [3]; patients with CXCL7 plasma levels below 250 ng/ml)?
**A.** 20.5 months

**Q.** And the PFS (metastatic ccRCC [3]; patients with CXCL7 plasma levels below 250 ng/ml at diagnosis)?
**A.** 15.1 months

**Q.** And the “median OS” value (metastatic ccRCC [3]; patients with CXCL7 plasmatic levels above 250 ng/ml, p=0.001)?
**A.** 34.4 months
